Data on 20 molecules can be found in patent publication US9796711B2, “Substituted pyrazolo[3,4-b]pyridin-6-carboxylic acids and method of use” (AbbVie S.àr.l., priority 2015, dated 2017).

Assay [1] concerns the target T1, ΔF508-CFTR (Homo sapiens, UniProt P13569, DEL508-508).
T1 construct: host or cells: CFBE41o-, doxycycline-inducible
Put plainly: CFTR cell surface levels using HRP-tagged ΔF508-CFTR expressing CFBE cells, intrinsic corrector capacity. The format is cell-based. The settings on record: for EC50: read-out: EC50. Put shortly:
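Here the cells express ΔF508-CFTR with horseradish peroxidase inserted in extracellular loop 4, so only rescued channel at the surface gives luminescent signal. Compounds act on their own, 20 h at the reduced temperature of 33 °C; values are percent activity relative to DMSO and a 3 μM corrector.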

For assay [2], the target named is T1, ΔF508-CFTR. Briefly: CFTR cell surface levels using HRP-tagged ΔF508-CFTR expressing CFBE cells, in the presence of a co-corrector. It is filed as cell-based. The settings on record: HRP-tagged ΔF508-CFTR expressing CFBE cells, in the presence of 3 μM co-corrector; for EC50: read-out: EC50. Put shortly: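 Cells were seeded with 0.5 μg/mL doxycycline and held 68 h at 37 °C. Test compounds plus 3 μM co-corrector (final 0.1% DMSO) were then added for 20 h at 33 °C. Washed cells received HRP substrate, and luminescence was normalized between DMSO and 3 μM co-corrector controls.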

Setting [3] is: HRP-tagged ΔF508-CFTR CFBE41o- cells, compounds alone (intrinsic corrector capacity), 20 hours at 33° C., positive control 3 μM corrector.
Where [4] appears, read: HRP-tagged ΔF508-CFTR CFBE41o- cells, compounds alone (intrinsic corrector capacity), 20 hours at 33° C.
Setting [5] is: HRP-tagged ΔF508-CFTR expressing CFBE cells, intrinsic corrector capacity (no co-corrector), 33° C., 20 hours.

SMILES strings stand for the structures.

T1 sequence (P13569 with tags, fused parts or gaps DEL508-508): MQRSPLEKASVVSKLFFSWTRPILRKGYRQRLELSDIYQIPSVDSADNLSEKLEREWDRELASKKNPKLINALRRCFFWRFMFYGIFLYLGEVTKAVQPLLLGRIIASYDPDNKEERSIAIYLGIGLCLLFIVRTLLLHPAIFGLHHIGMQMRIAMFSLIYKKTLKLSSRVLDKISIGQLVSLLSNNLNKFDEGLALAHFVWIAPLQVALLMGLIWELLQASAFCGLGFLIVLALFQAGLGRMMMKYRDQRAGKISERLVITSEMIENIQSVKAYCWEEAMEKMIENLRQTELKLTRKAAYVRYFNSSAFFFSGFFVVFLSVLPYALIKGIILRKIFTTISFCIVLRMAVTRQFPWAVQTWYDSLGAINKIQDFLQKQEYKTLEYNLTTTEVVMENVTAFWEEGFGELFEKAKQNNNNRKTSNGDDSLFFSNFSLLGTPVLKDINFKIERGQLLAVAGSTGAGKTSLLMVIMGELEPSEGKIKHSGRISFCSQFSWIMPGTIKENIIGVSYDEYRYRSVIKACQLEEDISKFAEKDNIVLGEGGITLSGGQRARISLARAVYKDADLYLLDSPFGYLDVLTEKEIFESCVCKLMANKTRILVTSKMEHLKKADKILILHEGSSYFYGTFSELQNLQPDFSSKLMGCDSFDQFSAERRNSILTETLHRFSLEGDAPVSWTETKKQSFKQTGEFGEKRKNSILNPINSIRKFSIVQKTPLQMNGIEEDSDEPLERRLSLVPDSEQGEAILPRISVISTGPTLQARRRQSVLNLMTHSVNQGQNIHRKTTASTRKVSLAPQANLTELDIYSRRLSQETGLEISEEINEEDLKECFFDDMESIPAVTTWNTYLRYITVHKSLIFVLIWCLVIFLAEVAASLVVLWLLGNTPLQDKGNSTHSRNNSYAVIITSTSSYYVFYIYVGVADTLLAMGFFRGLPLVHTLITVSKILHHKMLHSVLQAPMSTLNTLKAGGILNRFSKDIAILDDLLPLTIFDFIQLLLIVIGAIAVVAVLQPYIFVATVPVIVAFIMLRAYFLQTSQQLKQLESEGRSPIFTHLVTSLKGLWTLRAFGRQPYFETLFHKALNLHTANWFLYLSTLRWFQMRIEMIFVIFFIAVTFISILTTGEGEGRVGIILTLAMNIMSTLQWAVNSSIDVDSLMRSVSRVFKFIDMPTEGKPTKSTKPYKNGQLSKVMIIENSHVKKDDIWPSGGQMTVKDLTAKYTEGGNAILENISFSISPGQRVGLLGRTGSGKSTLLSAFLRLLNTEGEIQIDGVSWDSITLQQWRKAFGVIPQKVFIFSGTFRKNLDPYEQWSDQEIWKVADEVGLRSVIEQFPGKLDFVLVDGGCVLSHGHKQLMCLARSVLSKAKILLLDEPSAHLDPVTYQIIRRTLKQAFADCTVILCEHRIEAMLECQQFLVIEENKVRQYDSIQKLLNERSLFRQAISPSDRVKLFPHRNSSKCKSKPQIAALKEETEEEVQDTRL

As to `CC(C)c1nn(C2CCCOC2)c2nc(C(=O)O)cc(-c3ccc(N4CCOCC4)cc3)c12` (centres unmarked) [compound 68, 4-[4-(morpholin-4-yl)phenyl]-1-(oxan-3-yl)-3-(propan-2-yl)-1H-pyrazolo[3,4-b]pyridine-6-carboxylic acid], the “% Activation” value on ΔF508-CFTR [1] (setting [3]) was 106.65%; on ΔF508-CFTR [2] it was 274.9%. Also, the EC50 (in general, the concentration needed to bring the measured effect to its halfway point) was determined as 1740 nM on ΔF508-CFTR [1] (setting [4]) and 1390 nM on ΔF508-CFTR [2].

As to `Cc1cccc(-n2nc(C(C)C)c3c(N4CCC(C(F)(F)F)C4)cc(C(=O)O)nc32)c1` (centres unmarked) [compound 215, 1-(3-methylphenyl)-3-(propan-2-yl)-4-[3-(trifluoromethyl)pyrrolidin-1-yl]-1H-pyrazolo[3,4-b]pyridine-6-carboxylic acid], the “% Activation” value is 165.95% at ΔF508-CFTR [1] (setting [3]) and 347.15% at ΔF508-CFTR [2]. In addition, the EC50 at ΔF508-CFTR [1] (setting [4]) was determined as 1030 nM; at ΔF508-CFTR [2], 915 nM.

`COC1CN(c2cc(C(=O)O)nc3c2c(C2CCC2)nn3-c2ccccc2)C1` [compound 542, 3-cyclobutyl-4-(3-methoxyazetidin-1-yl)-1-phenyl-1H-pyrazolo[3,4-b]pyridine-6-carboxylic acid]: at ΔF508-CFTR [1] (setting [5]), the “% Activation” value was found to be 104.6% and the EC50 came to 1840 nM. Further, at ΔF508-CFTR [2], the “% Activation” value came out at 290.6% and the half-maximal effective concentration (EC50) worked out at 1780 nM.

Consider `CC(C)c1nn(-c2ccc(F)cc2)c2nc(C(=O)O)cc(N3CCCN(C4CCC4)CC3)c12` [compound 767, 4-(4-cyclobutyl-1,4-diazepan-1-yl)-1-(4-fluorophenyl)-3-(propan-2-yl)-1H-pyrazolo[3,4-b]pyridine-6-carboxylic acid], for which the “% Activation” value at ΔF508-CFTR [1] (setting [5]) was found to be 59.96%; at ΔF508-CFTR [2], 210.1%. The EC50 at ΔF508-CFTR [1] (setting [5]) and on ΔF508-CFTR [2] was 1670 nM each time.

In the case of `COC1CN(CC2CCN(c3cc(C(=O)O)nc4c3c(C3CCC3)nn4-c3ccccc3)CC2)C1` [compound 829, 3-cyclobutyl-4-{4-[(3-methoxyazetidin-1-yl)methyl]piperidin-1-yl}-1-phenyl-1H-pyrazolo[3,4-b]pyridine-6-carboxylic acid], the “% Activation” value at ΔF508-CFTR [1] (setting [5]) was found to be 170.7%; on ΔF508-CFTR [2] it was 411.7%. Besides, the EC50 was 381 nM on ΔF508-CFTR [1] (setting [5]) and 344 nM on ΔF508-CFTR [2].

For `CC(C)c1nn(C2CCN(CC(F)(F)F)CC2)c2nc(C(=O)O)cc(-c3ccc(N4CCOCC4)cc3)c12` [compound 117, 4-[4-(morpholin-4-yl)phenyl]-3-(propan-2-yl)-1-[1-(2,2,2-trifluoroethyl)piperidin-4-yl]-1H-pyrazolo[3,4-b]pyridine-6-carboxylic acid], the “% Activation” value at ΔF508-CFTR [1] (setting [3]) was 70.77%; on ΔF508-CFTR [2] it was 229.45%. Further, the EC50 was 1100 nM at ΔF508-CFTR [1] (setting [4]) and 765 nM on ΔF508-CFTR [2].

Turning to `Cc1nn(-c2ccccc2)c2nc(C(=O)O)cc(N3CCCCC3=O)c12` [compound 150, 3-methyl-4-(2-oxopiperidin-1-yl)-1-phenyl-1H-pyrazolo[3,4-b]pyridine-6-carboxylic acid], the “% Activation” value at ΔF508-CFTR [1] (setting [3]) came out at 6.341%; at ΔF508-CFTR [2], 115.3%. In addition, the EC50 at ΔF508-CFTR [1] (setting [4]) and on ΔF508-CFTR [2] was above 10000 nM in each case.

As to `Cc1nn(-c2ccccc2)c2nc(C(=O)O)cc(OC[C@@H](F)C3CCN(C)CC3)c12` [compound 379, 4-[(2S)-2-fluoro-2-(1-methylpiperidin-4-yl)ethoxy]-3-methyl-1-phenyl-1H-pyrazolo[3,4-b]pyridine-6-carboxylic acid], the “% Activation” value stood at 4.874% at ΔF508-CFTR [1] (setting [3]) and 128.5% at ΔF508-CFTR [2]. Besides, the EC50 on ΔF508-CFTR [1] (setting [4]) and on ΔF508-CFTR [2] was 5010 nM each time.

On to `Cc1nn(-c2ccccc2)c2nc(C(=O)O)cc(OCC3(S(C)(=O)=O)CCC3)c12` [compound 384, 4-{[1-(methanesulfonyl)cyclobutyl]methoxy}-3-methyl-1-phenyl-1H-pyrazolo[3,4-b]pyridine-6-carboxylic acid], for which the results for the “% Activation” value on ΔF508-CFTR [1] (setting [3]) and at ΔF508-CFTR [2] were 8.1785% and 123%, respectively. The EC50 at ΔF508-CFTR [1] (setting [4]) and at ΔF508-CFTR [2] was 5010 nM throughout.

`CN(C)c1ncc(-c2cc(C(=O)O)nc3c2c(C(C)(C)C)nn3C2CCCCC2)cn1` [compound 147, 3-tert-butyl-1-cyclohexyl-4-[2-(dimethylamino)pyrimidin-5-yl]-1H-pyrazolo[3,4-b]pyridine-6-carboxylic acid]: the “% Activation” value on ΔF508-CFTR [1] (setting [3]) worked out at 114.65%; on ΔF508-CFTR [2] it was 318.9%. Moreover, the results for the concentration for a half-maximal effect (EC50) at ΔF508-CFTR [1] (setting [4]) and on ΔF508-CFTR [2] were 1050 nM and 831 nM, respectively.

With `CC(C)Oc1nn(C2CCCCC2)c2nc(C(=O)O)cc(-c3ccc(N4CCN(C(C)C)CC4)cc3)c12` [compound 863, 1-cyclohexyl-3-[(propan-2-yl)oxy]-4-{4-[4-(propan-2-yl)piperazin-1-yl]phenyl}-1H-pyrazolo[3,4-b]pyridine-6-carboxylic acid], at ΔF508-CFTR [1] (setting [5]), the “% Activation” value stood at 156.35% and the EC50 turned out to be 499 nM. In addition, at ΔF508-CFTR [2], the “% Activation” value is reported as 320.9% and the EC50 came out at 370 nM.

`N#CC1CCN(c2ccc(-c3cc(C(=O)O)nc4c3c([C@H]3C[C@@H](F)C3)nn4-c3ccccc3)cn2)CC1` [compound 432, 4-[6-(4-cyanopiperidin-1-yl)pyridin-3-yl]-3-(cis-3-fluorocyclobutyl)-1-phenyl-1H-pyrazolo[3,4-b]pyridine-6-carboxylic acid]: on ΔF508-CFTR [1] (setting [5]), the “% Activation” value is 197.97% and the EC50 was 561 nM. Besides, on ΔF508-CFTR [2], the “% Activation” value was found to be 388.23% and the EC50 was determined as 298 nM.

`O=C(O)c1cc(OCC2CCC(F)(F)C2)c2c(C3CCC3)nn(-c3ccccc3)c2n1` (centres unmarked) [compound 435, 3-cyclobutyl-4-[(3,3-difluorocyclopentyl)methoxy]-1-phenyl-1H-pyrazolo[3,4-b]pyridine-6-carboxylic acid]: at ΔF508-CFTR [1] (setting [5]), the “% Activation” value is recorded as 116.7% and the EC50 was found to be 773 nM. Further, at ΔF508-CFTR [2], the “% Activation” value worked out at 290.05% and the EC50 was 453 nM.

With `CC(C)c1nn(-c2cccc(N3CC(O)C3)c2)c2nc(C(=O)O)cc(-c3ccc(N4CCOCC4)cc3)c12` [compound 225, 1-[3-(3-hydroxyazetidin-1-yl)phenyl]-4-[4-(morpholin-4-yl)phenyl]-3-(propan-2-yl)-1H-pyrazolo[3,4-b]pyridine-6-carboxylic acid], the figures for the “% Activation” value on ΔF508-CFTR [1] (setting [3]) and on ΔF508-CFTR [2] were 251.5% and 395.7%, respectively. The concentration giving a half-maximal response (EC50) was found to be 1980 nM at ΔF508-CFTR [1] (setting [4]) and 901 nM on ΔF508-CFTR [2].

On to `CC(C)c1nn(C2CCCCC2)c2nc(C(=O)O)cc(-c3ccc(N4CCC(C#N)CC4)nc3)c12` [compound 180, 4-[6-(4-cyanopiperidin-1-yl)pyridin-3-yl]-1-cyclohexyl-3-(propan-2-yl)-1H-pyrazolo[3,4-b]pyridine-6-carboxylic acid], for which the “% Activation” value on ΔF508-CFTR [1] (setting [3]) came to 249.55%; at ΔF508-CFTR [2], 524.85%. Also, the EC50 on ΔF508-CFTR [1] (setting [4]) was 972 nM; at ΔF508-CFTR [2] it was 687 nM.

Turning to `Cc1nn(C2CCCC2)c2nc(C(=O)O)cc(-c3ccc(N4CCOCC4)nc3)c12` [compound 106, 1-cyclopentyl-3-methyl-4[6-(morpholin-4-yl)pyridin-3-yl]-1H-pyrazolo[3,4-b]pyridine-6-carboxylic acid], the “% Activation” value worked out at 73% on ΔF508-CFTR [1] (setting [3]) and 237.45% on ΔF508-CFTR [2]. Also, the results for the EC50 on ΔF508-CFTR [1] (setting [4]) and at ΔF508-CFTR [2] were 3340 nM and 2620 nM, respectively.

On to `CC(C)(C)OC(=O)N1CC(c2nn(-c3ccccc3)c3nc(C(=O)O)cc(-c4ccc(N5CCOCC5)cc4)c23)C1` [compound 47, 3-[1-(tert-butoxycarbonyl)azetidin-3-yl]-4-[4-(morpholin-4-yl)phenyl]-1-phenyl-1H-pyrazolo[3,4-b]pyridine-6-carboxylic acid], for which the “% Activation” value on ΔF508-CFTR [1] (setting [3]) is on record as 183.2%; at ΔF508-CFTR [2], 390.5%. Besides, the EC50 at ΔF508-CFTR [1] (setting [4]) stood at 608 nM; at ΔF508-CFTR [2] it was 567 nM.

`CC(C)c1nn(-c2ccc(F)cc2)c2nc(C(=O)O)cc(N3CCN(C4CCN(C)CC4)CC3)c12` [compound 801, 1-(4-fluorophenyl)-4-[4-(1-methylpiperidin-4-yl)piperazin-1-yl]-3-(propan-2-yl)-1H-pyrazolo[3,4-b]pyridine-6-carboxylic acid]: on ΔF508-CFTR [1] (setting [5]), the “% Activation” value is listed as 67.99% and the EC50 came to 1670 nM. In addition, on ΔF508-CFTR [2], the “% Activation” value is 253.1% and the EC50 is 1670 nM.

In the case of `CC(=O)N1CCC(F)(COc2cc(C(=O)O)nc3c2c(C2CCC2)nn3-c2ccccc2)CC1` [compound 479, 4-[(1-acetyl-4-fluoropiperidin-4-yl)methoxy]-3-cyclobutyl-1-phenyl-1H-pyrazolo[3,4-b]pyridine-6-carboxylic acid], the results for the “% Activation” value on ΔF508-CFTR [1] (setting [5]) and on ΔF508-CFTR [2] were 114.41% and 317.77%, respectively. Besides, the EC50 at ΔF508-CFTR [1] (setting [5]) and at ΔF508-CFTR [2] was 1850 nM each time.

Consider `CC(C)c1nn(-c2ccc(F)cc2)c2nc(C(=O)O)cc(N3CCN(CCO)CC3)c12` [compound 773, 1-(4-fluorophenyl)-4-[4-(2-hydroxyethyl)piperazin-1-yl]-3-(propan-2-yl)-1H-pyrazolo[3,4-b]pyridine-6-carboxylic acid], for which, at ΔF508-CFTR [1] (setting [5]), the “% Activation” value is reported as 16.13% and the EC50 stood at 5000 nM. At ΔF508-CFTR [2], the “% Activation” value was 141.8% and the concentration for a half-maximal effect (EC50) stood at 5000 nM.
